# Reference: patent publication US20060003992A1, “New drug combinations” (Pharmacia & Upjohn Company, LLC, priority 2001, published 2006)
# Test system: mice
# Assay: conditioned avoidance response assay
# Type: in vivo
# Conditions: tested 20 min after
# Experimental: Eleven mice per sample group are tested using a conditioned avoidance response assay, which can be used to predict the likelihood of possible detrimental side effects associated with the administration of a neuroleptic agent. The regimen included a pre-treatment with either saline or reboxetine (at a dosage of 6 mg/kg, i.p.) followed thirty minutes afterwards by treatment with either saline or raclopride (0.05 mg/kg or 0.10 mg/kg, s.c.). The mice are tested in the assay twenty minutes after administration of the saline or raclopride. The mean average avoidance as measured by the assay for the six different sample groups are as follows: […]
SMILES,"mean average avoidance (saline pre-treatment, 30 min later raclopride 0.05 mg/kg s.c.)","mean average avoidance (saline pre-treatment, 30 min later raclopride 0.10 mg/kg s.c.)","mean average avoidance (reboxetine 6 mg/kg i.p. pre-treatment, 30 min later saline)"
CCN1CCC[C@H]1CNC(=O)c1c(O)c(Cl)cc(Cl)c1OC [raclopride],90,70,–
CCOc1ccccc1OC(c1ccccc1)C1CNCCO1 (stereo not drawn) [reboxetine],–,–,100
